Experimental data as given in patent US20140271926A1, “METHODS OF USE OF GLUTAMINE SYNTHETASE INHIBITORS” (CALIFORNIA INSTITUTE OF TECHNOLOGY, priority 2013, published 2014).

Key:
FlagCRBN [1] = target: T1, FlagCRBN (Homo sapiens, UniProt Q96SW2); assay: SILAC quantitative mass spectrometry of FlagCRBN immunoprecipitates, thalidomide vs DMSO; type: cell-based; conditions: 50 μM thalidomide 4 hours vs DMSO
T1 construct: expressed in transfected cells
Experimental: To identify IMiD-modulated substrates of CRBN, a human embryonic kidney (HEK) 293T cell line was generated that stably expresses CRBN with a Flag tag appended to its amino terminus (^FlagCRBN). ^FlagCRBN cells were grown in medium formulated with isotopically light lysine and arginine (light medium) or in medium formulated with isotopically heavy lysine and arginine (heavy medium). Cells growing in heavy medium were treated with 50 μM thalidomide for 4 hours, whereas cells growing in light medium were treated with DMSO. ^FlagCRBN immunoprecipitates were prepared in parallel, mixed, and analyzed by quantitative mass spectrometry. […] Essentially identical results were obtained in a label swap experiment. […] (Lopez-Girona et al., 2012, supra and Zhu et al. 2011 supra.)
Preparation of ^FlagCRBN for mass spectrometry (MS). SILAC-labeled cultures of the stable cell lines were grown as described Lee et al., 2011, Molecular & Cellular Proteomics, 10: M110 006460,the entire contents of which are herein incorporated by reference. Briefly, HEK293T cells, stably expressing ^FlagCRBN, were cultured in medium formulated with isotopically light lysine and arginine (‘light’ medium) or in medium formulated with isotopically heavy lysine and arginine (‘heavy’ medium). The cells growing in ‘heavy’ medium were treated with thalidomide (a final concentration of 50 μM) for 4 hours, while the cells growing in ‘light’ medium were treated with DMSO. SILAC experiments were repeated after swapping the SILAC labels in which the cells cultured in ‘light’ and ‘heavy’ medium were treated with thalidomide and DMSO, respectively. The ^FlagCRBN immunoprecipitates were prepared, mixed, and analyzed by quantitative mass spectrometry.
MS data analysis. Thermo raw files were processed and searched with MaxQuant (v. 1.4.1.2), as described in Cox et al., 2008, Nat. Biotechnol. 26:1367; and Cox et al., 2011, J. of Proteome Research, 10:1794, the entire contents of both of which are herein incorporated by reference. Trypsin was specified as the digestion enzyme with up to two missed cleavages. Protein N-terminal acetylation (+42.0106) and methionine oxidation (+15.9949) were specified as variable modifications. Carbamidomethylation of cysteine (+57.0215) was specified as a fixed modification. Arg6 ([…]) and Lys8 (+8.0142) were specified as the SILAC labels. Requantification and match between runs were enabled. Precursor ion tolerance was 7 ppm and fragment ion tolerance was 0.5 Da. All human Uniprot entries were searched (148298 sequences, downloaded on 05Dec12) along with a contaminant database containing proteins such as keratin and trypsin (247 sequences). (Apweiler et al., 2013, Nucleic Acids Research, 41: D43, the entire contents of which are herein incorporated by reference.) Additionally, to determine the false discovery rate, a decoy database was constructed by reversing the target database. While no minimum score was specified, the protein and peptide level false discovery rates were fixed at 1% and we required that all proteins reported were identified in both biological replicates by at least two peptides.
Proteins were quantified by first calculating the median of all peptide ratios within each biological replicate and then calculating the mean of the two biological replicate ratios. Only peptides uniquely assignable to the protein group were used for quantification. […] Individual ratio measurement error was estimated using pooled variance and overall ratio standard error was calculated using bootstrap analysis. […] Q-values were calculated from the p-values using the Storey method for calculating false discovery rates as described in Storey et al., 2002, J. Roy Stat. Soc. B., 64:479, the entire contents of which is herein incorporated by reference. A q-value of 0.05 was used as a threshold for significance.

FlagCRBN [2] = target: T1, FlagCRBN; assay: FlagCRBN immunoprecipitation from stable HEK293T cells, immunoblot for CRL4CRBN subunits and GS; type: cell-based; conditions: FIG. 2
Experimental: To confirm the results of the quantitative mass spectrometry, ^FlagCRBN was immunoprecipitated from the stable HEK293T cell line and immunoblotted for CRL4^CRBN subunits and GS. As expected, thalidomide enhanced recovery of GS but had no effect on binding of DDB1 or CUL4A (FIG. 2). In order to confirm this finding, endogenous proteins expressed in cells were analyzed that are responsive to the therapeutic effects of IMiDs. For this purpose, endogenous CRBN as immunoprecipitated from MM.1S multiple myeloma cells.
Immunoprecipitation. Cells were lysed in immunoprecipitation buffer (10 mM Tris [pH 7.5], 150 mM NaCl, 1% Triton X-100) containing a protease inhibitor cocktail, and immunoprecipitated with the indicated antibodies, such as anti-CRBN antibody for 2-4 hours at 4° C., followed by incubation with protein G sepharose 4 Fast Flow (GE Healthcare) for 1 hour at 4° C. Immunoprecipitated proteins were resolved by SDS/PAGE and analyzed by immunoblotting with the indicated antibodies.

T1 sequence (Q96SW2 whole entry): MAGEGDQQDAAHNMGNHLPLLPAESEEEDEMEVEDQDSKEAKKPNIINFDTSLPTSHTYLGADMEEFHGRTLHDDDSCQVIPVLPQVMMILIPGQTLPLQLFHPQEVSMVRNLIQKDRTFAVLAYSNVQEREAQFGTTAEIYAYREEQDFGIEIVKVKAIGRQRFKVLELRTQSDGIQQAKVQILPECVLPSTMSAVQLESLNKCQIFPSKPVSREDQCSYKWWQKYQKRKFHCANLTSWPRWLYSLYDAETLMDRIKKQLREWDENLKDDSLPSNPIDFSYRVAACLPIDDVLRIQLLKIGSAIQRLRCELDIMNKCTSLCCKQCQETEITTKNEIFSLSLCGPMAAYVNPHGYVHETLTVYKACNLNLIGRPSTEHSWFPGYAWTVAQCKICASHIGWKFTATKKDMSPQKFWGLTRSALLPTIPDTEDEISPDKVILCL

recovery of FlagCRBN, subunits of CRL4 (CUL4, DDB1, RBX1) and subunits of CSN (FlagCRBN [1]; FIG. 1): recovered in equal amounts
recovery of glutamine synthetase (GS) in FlagCRBN immunoprecipitates (FlagCRBN [1]; FIG. 1): recovered in greater amounts
+/−Thalidomide Ratio (FlagCRBN [1]; protein ATP5A1): 0.7541
+/−Thalidomide Ratio (FlagCRBN [1]; protein ATP5B): 0.6236
+/−Thalidomide Ratio (FlagCRBN [1]; protein BAG2): 0.6303
+/−Thalidomide Ratio (FlagCRBN [1]; protein BOLA2): 0.5989
+/−Thalidomide Ratio (FlagCRBN [1]; protein C11orf84): 0.7032
+/−Thalidomide Ratio (FlagCRBN [1]; protein C12orf23): 0.6718
+/−Thalidomide Ratio (FlagCRBN [1]; protein C22orf28): 0.7109
+/−Thalidomide Ratio (FlagCRBN [1]; protein CCT5): 0.8584
+/−Thalidomide Ratio (FlagCRBN [1]; protein CCT6A): 0.8483
+/−Thalidomide Ratio (FlagCRBN [1]; protein CCT8): 0.8368
+/−Thalidomide Ratio (FlagCRBN [1]; protein CLNS1A): 0.627
+/−Thalidomide Ratio (FlagCRBN [1]; protein CMBL): 0.7463
+/−Thalidomide Ratio (FlagCRBN [1]; protein COMT): 0.5482
+/−Thalidomide Ratio (FlagCRBN [1]; protein DDX5, DKFZp686J01190): 0.6321
+/−Thalidomide Ratio (FlagCRBN [1]; protein DKFZp686K23100, MATR3, DKFZp686K0542): 0.526
+/−Thalidomide Ratio (FlagCRBN [1]; protein FUS): 0.5807
+/−Thalidomide Ratio (FlagCRBN [1]; protein GLNS (glutamine synthetase)): 2.508
+/−Thalidomide Ratio (FlagCRBN [1]; protein GLUD1, GLUD2): 0.7935
+/−Thalidomide Ratio (FlagCRBN [1]; protein HNRNPA2B1): 0.4533
+/−Thalidomide Ratio (FlagCRBN [1]; protein HNRNPAB): 0.569
+/−Thalidomide Ratio (FlagCRBN [1]; protein HNRNPC, hCG_1641229, HNRPCL1, HNRNPCL1, LOC440563, LOC649330): 0.4229
+/−Thalidomide Ratio (FlagCRBN [1]; protein HNRNPK, HNRPK): 0.5905
+/−Thalidomide Ratio (FlagCRBN [1]; protein HNRNPL): 0.44
+/−Thalidomide Ratio (FlagCRBN [1]; protein HNRNPM, ORF, HNRPM): 0.6977
+/−Thalidomide Ratio (FlagCRBN [1]; protein HNRNPU, HNRPU): 0.7137
+/−Thalidomide Ratio (FlagCRBN [1]; protein HSP90AA1): 0.7454
+/−Thalidomide Ratio (FlagCRBN [1]; protein HSP90AB1): 0.79
+/−Thalidomide Ratio (FlagCRBN [1]; protein IMPDH2): 0.8138
+/−Thalidomide Ratio (FlagCRBN [1]; protein IVNS1ABP): 0.6131
+/−Thalidomide Ratio (FlagCRBN [1]; protein KIF11): 0.6737
+/−Thalidomide Ratio (FlagCRBN [1]; protein LUC7L2): 0.7578
+/−Thalidomide Ratio (FlagCRBN [1]; protein PDIA6): 0.8515
+/−Thalidomide Ratio (FlagCRBN [1]; protein PIH1D1): 0.5153
+/−Thalidomide Ratio (FlagCRBN [1]; protein PRPS1): 0.7264
+/−Thalidomide Ratio (FlagCRBN [1]; protein PRPS2): 0.6445
+/−Thalidomide Ratio (FlagCRBN [1]; protein PUF60): 0.5471
+/−Thalidomide Ratio (FlagCRBN [1]; protein RBM39, DKFZp781C0423, DKFZp686A11192, DKFZp781I1140, DKFZp686C17209): 0.6182
+/−Thalidomide Ratio (FlagCRBN [1]; protein RBMX, RBMXL1): 0.5004
+/−Thalidomide Ratio (FlagCRBN [1]; protein RIOK1): 0.6187
+/−Thalidomide Ratio (FlagCRBN [1]; protein RPL26, KRBA2, RPL26L1): 0.698
+/−Thalidomide Ratio (FlagCRBN [1]; protein RPL27): 0.7987
+/−Thalidomide Ratio (FlagCRBN [1]; protein RPL35, LOC154880): 0.6839
+/−Thalidomide Ratio (FlagCRBN [1]; protein RPS3A): 0.7607
+/−Thalidomide Ratio (FlagCRBN [1]; protein RPS8): 0.8186
+/−Thalidomide Ratio (FlagCRBN [1]; protein RPS25): 0.7348
+/−Thalidomide Ratio (FlagCRBN [1]; protein RPSA, RPSAP58, LAMR1P15): 0.8005
+/−Thalidomide Ratio (FlagCRBN [1]; protein RUVBL1): 0.7099
+/−Thalidomide Ratio (FlagCRBN [1]; protein RUVBL2): 0.6927
+/−Thalidomide Ratio (FlagCRBN [1]; protein SF3A3): 0.5959
+/−Thalidomide Ratio (FlagCRBN [1]; protein SFRS11, SRSF11): 0.573
+/−Thalidomide Ratio (FlagCRBN [1]; protein SNRPD1): 0.6168
+/−Thalidomide Ratio (FlagCRBN [1]; protein SNRPD3): 0.6583
+/−Thalidomide Ratio (FlagCRBN [1]; protein SNRPF): 0.6071
+/−Thalidomide Ratio (FlagCRBN [1]; protein SNRPN, SNRPB): 0.6605
+/−Thalidomide Ratio (FlagCRBN [1]; protein SPIN1): 0.6689
+/−Thalidomide Ratio (FlagCRBN [1]; protein SRSF3, SFRS3): 0.651
+/−Thalidomide Ratio (FlagCRBN [1]; protein STK38): 0.7445
+/−Thalidomide Ratio (FlagCRBN [1]; protein TCP1): 0.8927
+/−Thalidomide Ratio (FlagCRBN [1]; protein TRIM21): 0.7125
+/−Thalidomide Ratio (FlagCRBN [1]; protein TXN): 0.7037
+/−Thalidomide Ratio (FlagCRBN [1]; protein U2AF2): 0.6123
+/−Thalidomide Ratio (FlagCRBN [1]; protein VCP, DKFZp434K0126): 0.7702
+/−Thalidomide Ratio (FlagCRBN [1]; protein WDR77): 0.5895
binding of DDB1 or CUL4A to FlagCRBN (FlagCRBN [2]): no effect
recovery of GS with FlagCRBN (FlagCRBN [2]): enhanced
SMILES: O=C1CCC(N2C(=O)c3ccccc3C2=O)C(=O)N1 (stereo not shown) [thalidomide, Thalidomide]
